The values that follow come from patent US20240043448A1, “Small Molecule Inhibitors of KRAS G12C Mutant” (Merck Sharp & Dohme LLC, priority 2019, published 2024).

Like-named read-outs stand apart in the source and are kept apart here.

For assay [1], the target named is Biotinylated KRAS G12C protein (Homo sapiens (Human), UniProt P01116, C118S/C51S/C80L/G12C). Put plainly: SOS-catalyzed nucleotide exchange assay (TR-FRET). It counts as biochemical. The settings on record: in vitro apparent potency; preincubation time of 60 minutes prior to addition of SOS. In short, it runs like this:
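Biotinylated KRAS G12C preloaded with Bodipy-GDP and Tb-streptavidin, then incubated with compound (10-point, 3-fold series) for 60 min at RT. Exchange started with SOS and GTP for 60 min. TR-FRET 520/495 ratio normalised to DMSO and saturating-inhibitor controls; four-parameter fit.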

For assay [2], the system named is phospho-ERK. The experiment in a line: Cellular phospho-ERK assay. The settings on record: NCI-H358 cells, 2 hour incubation, ratio of p-Erk vs total Erk, read-out: IC50 (nM) pERK (Cell). It counts as cell-based. The essentials:
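NCI-H358 cells seeded overnight, then exposed to compound dose-response titrations for 2 hours at 37° C. in RPMI. Lysates assayed by AlphaLISA SureFire Ultra multiplex for p-Erk and total Erk; ratio p-Erk/total Erk used as readout, IC50 from 4-parameter logistic fit.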

Chain of Biotinylated KRAS G12C protein (P01116 other isoform, or with tags, fused parts or gaps, stated change not applied): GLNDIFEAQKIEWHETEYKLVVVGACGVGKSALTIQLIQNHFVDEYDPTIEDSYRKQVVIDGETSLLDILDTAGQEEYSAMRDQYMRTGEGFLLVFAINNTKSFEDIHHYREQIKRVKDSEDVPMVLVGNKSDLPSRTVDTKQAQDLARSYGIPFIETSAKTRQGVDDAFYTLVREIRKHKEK

As to `C=CC(=O)N1C[C@H](C)N(c2nc(=O)n3c4nc(c(F)cc24)-c2cccc(O)c2OCCCc2ccnc(C(C)C)c2-3)C[C@H]1C` [Example 113, 2-[(2S,5R)-2,5-dimethyl-4-(prop-2-enoyl)piperazin-1-yl]-20-fluoro-14-hydroxy-6-(propan-2-yl)-11,12-dihydro-4H,10H-1,18-(ethanediylidene)pyrido[4,3-e]pyrimido[1,6-g][1,7,9]benzoxadiazacyclododecin-4-one], the IC50 turned out to be 33 nM in assay [1] and 113 nM in assay [2].

Regarding `C=CC(=O)N1C[C@H](C)N(c2nc(=O)n3c4nc(c(F)cc24)-c2c(cccc2C(F)(F)F)OCCOc2ccnc(C(C)C)c2-3)C[C@H]1C` [Example 73, 2-[(2S,5R)-2,5-dimethyl-4-(prop-2-enoyl)piperazin-1-yl]-20-fluoro-6-(propan-2-yl)-17-(trifluoromethyl)-11,12-dihydro-4H-1,18-(ethanediylidene)pyrido[4,3-e]pyrimido[1,6-g][1,4,7,9]benzodioxadiazacyclododecin-4-one], the IC50 in assay [1] stood at 6.5 nM; in assay [2], 13 nM.

Turning to `C=CC(=O)N1C[C@H](C)N(c2nc(=O)n3c4nc(c(F)cc24)-c2c(F)cccc2OCCCCc2cnc(C(C)C)c-3c2C)C[C@H]1C` [Example 88, 2-[(2S,5R)-2,5-dimethyl-4-(prop-2-enoyl)piperazin-1-yl]-19,22-difluoro-24-methyl-7-(propan-2-yl)-11,12,13,14-tetrahydro-4H-1,20-etheno-6,10-(metheno)pyrimido[1,6-k][1,8,11,13]benzoxatriazacyclohexadecin-4-one], the IC50 is 1.1 nM in assay [1] and 96 nM in assay [2].

As to `C=CC(=O)N1CCN(c2nc(=O)n3c4nc(c(F)cc24)-c2c(F)cccc2CC[C@@H](O)Cc2ccnc(C(C)C)c2-3)[C@@H](C)C1` [Example 118-2, 17,20-difluoro-11-hydroxy-2-[(2S)-2-methyl-4-(prop-2-enoyl)piperazin-1-yl]-6-(propan-2-yl)-10,11,12,13-tetrahydro-4H-1,18-ethenopyrido[3,4-e]pyrimido[6,1-c][2,4]benzodiazacyclododecin-4-one], the IC50 in assay [1] was determined as 54 nM; in assay [2], 1220 nM.

On to `C=CC(=O)N1C[C@@H](C)N(c2nc(=O)n3c4nc(c(Cl)cc24)-c2c(F)ccc(F)c2OCCOc2ccnc(C(C)C)c2-3)C[C@@H]1C` [Example 51-1, (5aSa,17aRa)-20-Chloro-2-[(2S,5R)-2,5-dimethyl-4-(prop-2-enoyl)piperazin-1-yl]-14,17-difluoro-6-(propan-2-yl)-11,12-di[(^2H)hydro](11,12-^2H2)-4H-1,18-(ethanediylidene)pyrido[4,3-e]pyrimido[1,6-g][1,4,7,9]benzodioxadiazacyclododecin-4-one], for which the IC50 is 1 nM in assay [1] and 13 nM in assay [2].

As to `C=CC(=O)N1CCN(c2nc(=O)n3c4nc(c(F)cc24)-c2c(F)cccc2OCCCc2ccnc(C(C)C)c2-3)C(Cc2ccccc2)C1` (centres unmarked) [Example 100, 2-[2-benzyl-4-(prop-2-enoyl)piperazin-1-yl]-17,20-difluoro-6-(propan-2-yl)-11,12-dihydro-4H,10H-1,18-ethenopyrido[4,3-e]pyrimido[1,6-g][1,7,9]benzoxadiazacyclododecin-4-one], the IC50 in assay [1] came to 25 nM; in assay [2] (Homo sapiens, NCI-H358, 2 h), 508 nM.

For the compound `C=CC(=O)N1C[C@H](C)N(c2nc(=O)n3c4nc(c(F)cc24)-c2c(F)cccc2OCC(F)(F)COc2ccnc(C(C)C)c2-3)C[C@H]1C` (single isomer, unassigned) [Example 13a], the values for the IC50 in assay [1] and in assay [2] were 7.2 nM and 27 nM, respectively.
